This is an account of results in paper PMC7249060, “The Antiproliferative Effects of Flavonoid MAO Inhibitors on Prostate Cancer Cells” (Molecules, 2020).

For assay [1], the target named is T1, hMAO-A (Homo sapiens, UniProt P21397).
T1 construct: purchased Sigma-Aldrich Co. (St. Louis, MO, USA)
T1 sequence (P21397 1-527): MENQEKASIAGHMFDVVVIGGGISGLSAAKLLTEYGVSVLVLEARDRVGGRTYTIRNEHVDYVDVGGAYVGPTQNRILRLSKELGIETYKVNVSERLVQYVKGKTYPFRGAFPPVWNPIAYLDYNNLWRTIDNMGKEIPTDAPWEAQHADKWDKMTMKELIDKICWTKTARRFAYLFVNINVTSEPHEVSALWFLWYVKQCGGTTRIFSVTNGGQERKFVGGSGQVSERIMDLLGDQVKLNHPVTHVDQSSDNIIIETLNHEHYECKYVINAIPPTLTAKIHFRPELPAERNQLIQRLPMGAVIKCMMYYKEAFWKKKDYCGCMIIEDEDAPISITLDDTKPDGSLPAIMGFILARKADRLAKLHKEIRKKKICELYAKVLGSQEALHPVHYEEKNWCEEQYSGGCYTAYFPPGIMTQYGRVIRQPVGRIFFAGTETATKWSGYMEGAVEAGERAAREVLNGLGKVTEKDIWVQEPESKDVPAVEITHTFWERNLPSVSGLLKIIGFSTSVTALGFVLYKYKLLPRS
As to the kind of experiment: MAO-Glow luminescence screen of KKRs at 100 μM. Format: biochemical. The settings on record: from screen at 100 μM, 37 °C, 60 min, LDS 40 μM. The protocol: We optimized our control hMAO-A and hMAO-B isozymes reactions in the incubation condition, at 37 °C for 1 h, by performing a luminescence assay using the MAO-Glow™ kit. Upon arrival, each isozyme was diluted with 10 mM HEPES in cold HBSS of pH 7.4. Afterward, the diluted isozymes were kept at −80 °C until use. Enzyme concentration optimization was accomplished by testing ten 2X serially diluted hMAO-A and hMAO-B concentrations for a final range of 7.00–0.01 U/mL each. The tested isozymes were incubated with LDS of 40 and 4 μM for isozymes A and B, respectively (recommended by Promega protocol), and a maximum of used DMSO of 1% final concentration. Different isozyme concentrations reactions at their initial velocities were monitored. Consequently, their required concentrations were defined to be 0.44 U/mL each. Additionally, ten different LDS concentrations, ranging from 0.3–150 μM, were monitored for optimizing and validating the linearity of the initial reaction for the hMAO-A mode of action. Subsequently, we chose a saturated substrate of 75 μM as a required concentration for the hMAO-A enzyme kinetic reactions.
The inhibitory effects of the synthesized KKRs of hMAO-A and B were tested by measuring the decrease in arbitrary light units (ALU) signal produced by the optimized isozymes using the MAO-Glow™ Assay at 37 °C. In this assay, DMSO stock for each KKR compound was diluted with a reaction buffer of pH 7.4 to make a 4X working solution for a maximum final concentration of 100 μM and ≤1% DMSO. The experiments were run in the absence and presence of 4X the miscellaneous standards of MAO-BIs (DEP, PARG, and SAF) and MAO-AIs (PIRL and CLORG), with similar concentrations. In white opaque 96-well microplates, 12.5 μL of each compound was plated at RT and was followed by 25 μL of 2X cold hMAO-A or hMAO-B, for a final concentration of 0.44 U/mL. A related buffer substituted each isozyme to make the blank wells and substituted each compound to make the negative control wells. Following this, we added 12.5 μL of 4X LDS to make a final substrate concentration of 40- and 4-μM for hMAO-A and hMAO-B, respectively. All screen plates were incubated at 37 °C for 60 min. The plates of 50 μL/well were then taken out from the incubator, and their reactions were stopped by an equal volume of 50 μL of reporter luciferin detection reagent (RLDR). After 30 min, the luminescence signals for all plates were read on a Synergy HTX Multi-reader from Bio-Tek (Winooski, VT, USA).

In assay [2] the test system is DU145 cells. As to the kind of experiment: Scratch migration assay. Format: cell-based, human. Conditions: preliminary data. The protocol: For in-vitro migration experiments, the PCa metastatic DU145 cell line was used. Cell proliferation and cytotoxicity were monitored for assay validation. The cells (passage # ≤ 10) were grown in fresh media of EMEM 10% FBS, 1% P/S. The cells were seeded in flat-bottom transparent 96-well microplates (100,000 cells/100 μL/well) in EMEM 5% FBS, 1% P/S experimental media. The next day, the confluent cells monolayer was artificially injured by scratching a line across each well, using a 200 μL tip. Immediately, the old media with the detached cells were replaced with 175 μL fresh warm experimental media. Intact cells were then treated with 25 μL of HBSS buffer 7.4 containing tested KKR. In addition to the negative control, KKR11 was tested at gradual concentrations to make finals of 40, 30, 23, 17, and 13 μM. The cells were then incubated for an additional 72 h for gap closure of the control wells.
At the gap closure time point, all cells were subjected to the crystal violet assay that only stains viable cells. Briefly, all media were carefully aspired from cells that were then washed with Ca- and Mg-free PBS. The cells were then fixed with 100 μL 0.25% v/v glutaraldehyde, at 37 °C for 20–30 min incubation time, and dried overnight. The next day, all viable attached cells were stained with a 100 μL crystal violet solution (0.1% in DI-water) for up to 30 min. The solution was then discarded, and the stained cells were kept dry for imaging. Images of the scratched areas were photographed using 10X phase contrast objective lenses of Motic-MXH-100-AE31E-Elite Inverted Microscope.

Bounds are passed on as bounds.

For orientation: IC90 means the concentration at which the effect reaches the 90% level. As to `O=C(/C=C/c1ccccc1)c1cc(Cl)cc(Cl)c1O` [KKR20, (E)-1-(3,5-dichloro-2-hydroxyphenyl)-3-phenylprop-2-en-1-one], the IC90 in assay [1] was under 100 µM. Also, the “effect on cell migration” value in assay [2] is recorded as “no significant effects against cell migration”.

Regarding `O=c1cc(-c2ccccc2)oc2cc(Cl)c(Cl)cc12` [KKR21, 6,7-dichloro-2-phenyl-4H-chromen-4-one], in assay [1], the IC90 is under 100 µM.

As to `O=c1c(O)c(-c2ccccc2)oc2c(Cl)cc(Cl)cc12` [KKR7, 6,8-dichloro-3-hydroxy-2-phenyl-4H-chromen-4-one], the IC90 in assay [1] is under 100 µM. The “effect on cell migration” value in assay [2] was “no significant effects against cell migration”. Regarding `COc1cc(OC)c2c(=O)c(O)c(/C=C/c3cc(OC)c(OC)c(OC)c3)oc2c1` [KKR2A, (E)-3-hydroxy-5,7-dimethoxy-2-(3,4,5-trimethoxystyryl)-4H-chromen-4-one], in assay [1], the IC90 is under 100 µM. Turning to `COc1cc(O)c(C(=O)/C=C/c2ccc(Cl)c(Cl)c2)c(OC)c1` [KKR11, (E)-3-(3,4-dichlorophenyl)-1-(2-hydroxy-4,6-dimethoxyphenyl)prop-2-en-1-one], in assay [1], the IC90 was under 100 µM. For the same compound, the “effect on cell migration” value in assay [2] is “delayed cell migration”.
